According to patent US20160122386A1, “V1A RECEPTOR AGONISTS” (FERRING B.V., priority 2014, published 2016):
Starred links: 1 amine or outer side, 2 acyl side, 3 side chain; linkers in the order of their positions; H or OH if unused. Positions of bridges follow the written chain, without caps; N, C: chain ends. Non-standard residues stand in square brackets, D forms with d. Residues, ends and D or L forms follow the SMILES beside them. Chains are numbered I, II in the order given. *: point of attachment. d(isoGln) = NC(=O)[C@@H](CCC(=O)[*:2])N[*:1]; isoGln = NC(=O)[C@H](CCC(=O)[*:2])N[*:1]; d(εLys) = N[C@H](CCCCN[*:1])C(=O)[*:2]; X1 = N[C@@H](CCC(=O)[*:2])C(=O)[*:1]; εLys = N[C@@H](CCCCN[*:1])C(=O)[*:2]; X4 = N[C@H](CCC(=O)[*:2])C(=O)[*:1]; Aad = N[C@@H](CCCC(=O)O)C(=O)O; Cit = NC(=O)NCCC[C@H](N)C(=O)O; Dab = NCC[C@H](N)C(=O)O; PhAc = O=C(Cc1ccccc1)*

Target: T1, human V1aR (Homo sapiens, UniProt P37288)
T1 construct: expressed in transfected cells
Assay: Agonist activity at vasopressin V1a receptors, cell-based FLIPR calcium assay
Conditions: for Emax: read-out: Efficacy Avg. (%)
In short: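 HEK Flp-In cells stably expressing human V1aR were loaded with Calcium 4 dye plus 2.5 mM probenecid for 1 h at 37 °C, then given half-log compound concentrations (final 0.1% DMSO) on FLIPR Tetra.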

T1 sequence (P37288 whole entry): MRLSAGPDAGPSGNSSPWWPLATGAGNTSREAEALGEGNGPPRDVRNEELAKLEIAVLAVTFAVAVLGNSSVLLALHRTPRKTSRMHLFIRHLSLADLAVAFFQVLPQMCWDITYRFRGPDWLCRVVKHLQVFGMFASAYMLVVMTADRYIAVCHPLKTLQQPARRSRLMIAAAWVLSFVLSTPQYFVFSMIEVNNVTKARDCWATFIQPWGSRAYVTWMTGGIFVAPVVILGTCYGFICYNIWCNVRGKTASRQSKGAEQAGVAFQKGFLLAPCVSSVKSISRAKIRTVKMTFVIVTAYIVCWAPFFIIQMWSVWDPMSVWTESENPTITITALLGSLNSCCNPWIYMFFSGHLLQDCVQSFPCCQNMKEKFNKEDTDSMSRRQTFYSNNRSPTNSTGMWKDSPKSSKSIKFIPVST

Row | SMILES | EC50 | Emax
1 | CC[C@H](C)[C@@H]1NC(=O)[C@H](Cc2ccccc2)NC(=O)[C@@H](N)CSSC[C@@H](C(=O)N2CCC[C@H]2C(=O)N[C@@H](CCNC(=O)[C@H](N)CCCCNC(=O)CC[C@@H](NC(=O)[C@H](CCCNC(=N)N)NC(=O)[C@@H]2CCCN2C(=O)[C@H](C)NC(=O)[C@H](CC(N)=O)NC(=O)[C@H](CCC(N)=O)NC(=O)[C@H](Cc2ccccc2)NC(=O)[C@@H](Cc2ccc(OC)cc2)NC(=O)Cc2ccccc2)C(N)=O)C(=O)NCC(N)=O)NC(=O)[C@H](CC(N)=O)NC(=O)[C@H](CCC(N)=O)NC1=O [Compound 56] (I: H-CFIQNCP[Dab]G-NH2 / II: PhAc-[dY](Me)FQNAPR[d(isoGln)][d(εLys)]; disulfide I:1-I:6; amide I:8-II:C) | 1.8 nM | 60%
2 | CC[C@H](C)[C@@H]1NC(=O)[C@H](Cc2ccccc2)NC(=O)[C@@H](N)CSSC[C@@H](C(=O)N2CCC[C@H]2C(=O)N[C@@H](CCNC(=O)[C@@H](N)CCCCNC(=O)CC[C@@H](NC(=O)[C@H](CCCNC(=N)N)NC(=O)[C@@H]2CCCN2C(=O)[C@H](CCCNC(N)=O)NC(=O)[C@H](CC(N)=O)NC(=O)[C@H](CCC(N)=O)NC(=O)[C@H](Cc2ccccc2)NC(=O)[C@@H](Cc2ccc(OC)cc2)NC(=O)Cc2ccccc2)C(N)=O)C(=O)NCC(N)=O)NC(=O)[C@H](CC(N)=O)NC(=O)[C@H](CCC(N)=O)NC1=O [Compound 57] (I: H-CFIQNCP[Dab]G-NH2 / II: PhAc-[dY](Me)FQN[Cit]PR[d(isoGln)][εLys]; disulfide I:1-I:6; amide I:8-II:C) | 1.4 nM | 63%
3 | CC[C@H](C)[C@@H]1NC(=O)[C@H](Cc2ccccc2)NC(=O)[C@@H](N)CSSC[C@@H](C(=O)N2CCC[C@H]2C(=O)N[C@@H](CCNC(=O)[C@H](N)CCCCNC(=O)[C@H](CCCCNC(C)=O)NC(=O)CC[C@H](NC(=O)[C@H](CCCNC(=N)N)NC(=O)[C@@H]2CCCN2C(=O)[C@H](C)NC(=O)[C@H](CC(N)=O)NC(=O)[C@H](CCC(N)=O)NC(=O)[C@H](Cc2ccccc2)NC(=O)[C@@H](Cc2ccc(OC)cc2)NC(=O)Cc2ccccc2)C(N)=O)C(=O)NCC(N)=O)NC(=O)[C@H](CC(N)=O)NC(=O)[C@H](CCCC(N)=O)NC1=O [Compound 58] (I: H-CFI[Aad](NH2)NCP[Dab]G-NH2 / II: PhAc-[dY](Me)FQNAPR[isoGln]K(Ac)[d(εLys)]; disulfide I:1-I:6; amide I:8-II:C) | 2.6 nM | 26%
4 | CC[C@H](C)[C@@H]1NC(=O)[C@H](Cc2ccccc2)NC(=O)[C@@H](N)CSSC[C@@H](C(=O)N2CCC[C@H]2C(=O)N[C@@H](CCNC(=O)[C@H](N)CCCCNC(=O)CC[C@H](NC(=O)[C@H](CCCNC(=N)N)NC(=O)[C@@H]2CCCN2C(=O)[C@H](CCN)NC(=O)[C@H](CC(N)=O)NC(=O)[C@H](CCC(N)=O)NC(=O)[C@H](Cc2ccccc2)NC(=O)[C@@H](Cc2ccc(OC)cc2)NC(=O)Cc2ccccc2)C(N)=O)C(=O)NCC(N)=O)NC(=O)[C@H](CC(N)=O)NC(=O)[C@H](CC(N)=O)NC1=O [Compound 59] (I: H-CFINNCP[Dab]G-NH2 / II: PhAc-[dY](Me)FQN[Dab]PR[isoGln][d(εLys)]; disulfide I:1-I:6; amide I:8-II:C) | – | 26%
5 | CC[C@H](C)[C@@H]1NC(=O)[C@H](Cc2ccccc2)NC(=O)[C@@H](N)CSSC[C@@H](C(=O)N2CCC[C@H]2C(=O)N[C@@H](CCNC(=O)[C@H](N)CCCCNC(=O)CC[C@H](NC(=O)[C@H](CCCNC(=N)N)NC(=O)[C@@H]2CCCN2C(=O)[C@H](C)NC(=O)[C@H](CC(N)=O)NC(=O)[C@H](CCC(N)=O)NC(=O)[C@H](Cc2ccccc2)NC(=O)[C@@H](Cc2ccc(OC)cc2)NC(=O)Cc2ccccc2)C(N)=O)C(=O)NCC(N)=O)NC(=O)[C@H](CC(N)=O)NC(=O)[C@H](CC(N)=O)NC1=O [Compound 60] (I: H-CFINNCP[Dab]G-NH2 / II: PhAc-[dY](Me)FQNAPR[isoGln][d(εLys)]; disulfide I:1-I:6; amide I:8-II:C) | 2.3 nM | 42%
6 | CC[C@H](C)[C@@H]1NC(=O)[C@H](Cc2ccccc2)NC(=O)[C@@H](N)CSSC[C@@H](C(=O)N2CCC[C@H]2C(=O)N[C@@H](CCNC(=O)[C@H](N)CCCCNC(=O)CC[C@H](NC(=O)[C@H](CCCNC(=N)N)NC(=O)[C@@H]2CCCN2C(=O)[C@H](CCC(N)=O)NC(=O)[C@H](CC(N)=O)NC(=O)[C@H](CCC(N)=O)NC(=O)[C@H](Cc2ccccc2)NC(=O)[C@@H](Cc2ccc(OC)cc2)NC(=O)Cc2ccccc2)C(N)=O)C(=O)NCC(N)=O)NC(=O)[C@H](CC(N)=O)NC(=O)[C@H](CCCC(N)=O)NC1=O [Compound 61] (I: H-CFI[Aad](NH2)NCP[Dab]G-NH2 / II: PhAc-[dY](Me)FQNQPR[isoGln][d(εLys)]; disulfide I:1-I:6; amide I:8-II:C) | 2.5 nM | 38%
7 | CC[C@H](C)[C@@H]1NC(=O)[C@H](Cc2ccccc2)NC(=O)[C@@H](N)CSSC[C@@H](C(=O)N2CCC[C@H]2C(=O)N[C@@H](CCNC(=O)[C@H](N)CCCCNC(=O)CC[C@@H](NC(=O)[C@H](CCCNC(=N)N)NC(=O)[C@@H]2CCCN2C(=O)[C@H](C)NC(=O)[C@H](CC(N)=O)NC(=O)[C@H](CCC(N)=O)NC(=O)[C@H](Cc2ccccc2)NC(=O)[C@@H](Cc2ccc(OC)cc2)NC(=O)Cc2ccccc2)C(N)=O)C(=O)NCC(N)=O)NC(=O)[C@H](CC(N)=O)NC(=O)[C@H](CCCC(N)=O)NC1=O [Compound 62] (I: H-CFI[Aad](NH2)NCP[Dab]G-NH2 / II: PhAc-[dY](Me)FQNAPR[d(isoGln)][d(εLys)]; disulfide I:1-I:6; amide I:8-II:C) | 2.5 nM | 31%
8 | CC[C@H](C)[C@@H]1NC(=O)[C@H](Cc2ccccc2)NC(=O)[C@@H](N)CSSC[C@@H](C(=O)N2CCC[C@H]2C(=O)N[C@@H](CCNC(=O)[C@@H](N)CCC(=O)NCCCC[C@H](NC(=O)[C@H](CCCNC(=N)N)NC(=O)[C@@H]2CCCN2C(=O)[C@H](C)NC(=O)[C@H](CC(N)=O)NC(=O)[C@H](CCC(N)=O)NC(=O)[C@H](Cc2ccccc2)NC(=O)[C@@H](Cc2ccc(OC)cc2)NC(=O)Cc2ccccc2)C(N)=O)C(=O)NCC(N)=O)NC(=O)[C@H](CC(N)=O)NC(=O)[C@H](CC(N)=O)NC1=O [Compound 63] (I: H-CFINNCP[Dab]G-NH2 / II: PhAc-[dY](Me)FQNAPRK-NH2; disulfide I:1-I:6; linker I:8-II:8 via X1) | 1.1 nM | 36%
9 | CC[C@H](C)[C@@H]1NC(=O)[C@H](Cc2ccccc2)NC(=O)[C@@H](N)CSSC[C@@H](C(=O)N2CCC[C@H]2C(=O)N[C@@H](CCNC(=O)[C@@H](N)CCC(=O)NCCCC[C@H](NC(=O)[C@H](CCCNC(=N)N)NC(=O)[C@@H]2CCCN2C(=O)[C@H](C)NC(=O)[C@H](CC(N)=O)NC(=O)[C@H](CCC(N)=O)NC(=O)[C@H](Cc2ccccc2)NC(=O)[C@@H](Cc2ccc(OC)cc2)NC(=O)Cc2ccccc2)C(N)=O)C(=O)NCC(N)=O)NC(=O)[C@H](CC(N)=O)NC(=O)[C@H](CCCC(N)=O)NC1=O [Compound 64] (I: H-CFI[Aad](NH2)NCP[Dab]G-NH2 / II: PhAc-[dY](Me)FQNAPRK-NH2; disulfide I:1-I:6; linker I:8-II:8 via X1) | 2.9 nM | 42%
10 | CC[C@H](C)[C@@H]1NC(=O)[C@H](Cc2ccccc2)NC(=O)[C@@H](N)CSSC[C@@H](C(=O)N2CCC[C@H]2C(=O)N[C@@H](CCNC(=O)[C@H](N)CCC(=O)NCCCC[C@H](NC(=O)[C@H](CCCNC(=N)N)NC(=O)[C@@H]2CCCN2C(=O)[C@H](C)NC(=O)[C@H](CC(N)=O)NC(=O)[C@H](CCC(N)=O)NC(=O)[C@H](Cc2ccccc2)NC(=O)[C@@H](Cc2ccc(OC)cc2)NC(=O)Cc2ccccc2)C(N)=O)C(=O)NCC(N)=O)NC(=O)[C@H](CC(N)=O)NC(=O)[C@H](CCCC(N)=O)NC1=O [Compound 65] (I: H-CFI[Aad](NH2)NCP[Dab]G-NH2 / II: PhAc-[dY](Me)FQNAPRK-NH2; disulfide I:1-I:6; linker I:8-II:8 via X4) | 4.5 nM | 31%
11 | CC[C@H](C)[C@@H]1NC(=O)[C@H](Cc2ccccc2)NC(=O)[C@@H](N)CSSC[C@@H](C(=O)N2CCC[C@H]2C(=O)N[C@@H](CCNC(=O)[C@H](N)CCC(=O)NCCCC[C@H](NC(=O)[C@H](CCCNC(=N)N)NC(=O)[C@@H]2CCCN2C(=O)[C@H](C)NC(=O)[C@H](CC(N)=O)NC(=O)[C@H](CCC(N)=O)NC(=O)[C@H](Cc2ccccc2)NC(=O)[C@@H](Cc2ccc(OC)cc2)NC(=O)Cc2ccccc2)C(N)=O)C(=O)NCC(N)=O)NC(=O)[C@H](CC(N)=O)NC(=O)[C@H](CC(N)=O)NC1=O [Compound 66] (I: H-CFINNCP[Dab]G-NH2 / II: PhAc-[dY](Me)FQNAPRK-NH2; disulfide I:1-I:6; linker I:8-II:8 via X4) | 2.3 nM | 30%
